Consider three compounds from US8318708B2, “Use of vitamin D receptor agonists, ligands, and precursors to treat pancreatic fibrosis” (Salk Institute for Biological Studies, priority 2007, dated 2012).

For series [1], the system named is primary HSCs. Put plainly: Illumina array: LPS-treated primary rat HSCs with vitamin D3 or LXR ligand T1317 (Table 3). The settings on record: co-treatment with LPS; T1317 1 μM, vitamin D3 1 nM.
Description: (§2) For Illumina microarray analysis, Illumina TotalPrep RNA Amplification Kit (Ambion; Catalog # IL1791) was used with the manufacturer's instructions for the RNA amplification. […] Essentially, biotinylated cRNA was prepared according to the manufacturer's directions starting with 200 ng total RNA. Hybridization to the Illumina Sentrix RatRef-12 v.1 and Mouse RefSeq version 2 Expression BeadChips (Illumina, Inc., San Diego, Calif.), washing and scanning were performed according to the Illumina BeadStation 500× manual (revision C). […] RNA is isolated using Trizol and the quality/integrity of the total RNA verified using a Bioanalyzer (Agilent).
(§3) Microarray experiments were repeated two times with RNA from two experiments where HSCs were isolated from two different rats and for each condition triplicate samples were used. The “Detection Score” was used to determine expression using the Illumina platform. It is a statistical measure in the BeadStudio software (version 1.5.0.34), which is computed based on the Z-value of a gene relative to the Z-value of the negative controls. The Illumina data were adjusted (“normalized”) using a cubic spline function. […] The expression difference score, DiffScore, takes into account background noise and sample variability. […] Illumina expression arrays utilize gene-specific 50-mer oligonucleotide probes with an average of 30 replicates of each probe bead per individual array.
Isolated primary HSCs were cultured on plastic tissue culture plates for 40 hours prior to treatment with or without vitamin D3 (1 nM) in the presence or absence of 15 ng/ml of LPS for 24 hours. Cells were then harvested, total RNA extracted, and biotin labeled cRNA was prepared for hybridization to Illumina Rat RefSeq version 1 expression arrays. […] The data generated from these arrays was processed using Illumina BeadStudio software to identify gene expression changes between the different samples.
Series [2] deals with primary HSCs. Put plainly: Illumina array: TGFβ1-treated primary rat HSCs with vitamin D3 (Table 4). The settings on record: co-treatment with TGFβ1 100 pM, vitamin D3 1 nM, 24 h.
Description: as §2, §3
The Illumina platform described above was used to identify genome-wide effects of vitamin D3-activated VDR on TGFβ signaling in primary rat HSCs. Isolated primary HSCs were cultured on plastic tissue culture plates for 40 hours prior to treatment with or without vitamin D3 (1 nM) in the presence or absence of TGFβ1 (100 pM) for 24 hours. Cells were then harvested, total RNA extracted, and biotin labeled cRNA was prepared for hybridization to an Illumina Rat RefSeq version 1 genome array. […] The data generated from these arrays was processed using Illumina BeadStudio software to identify gene expression changes between the different samples. The vitamin D3 mediated changes on TGFβ1 signaling were identified by comparing TGFβ1 and co-treated TGFβ1/vitamin D3 samples.
The subject of series [3] is CCl4-induced liver fibrosis. Put plainly: CCl4-induced liver fibrosis model. Type of series: in vivo, mouse. The text has this:
. The CCl4 model of chronic liver injury and fibrosis is a well established model of liver injury, inflammation, fibrosis and cirrhosis where CCL4 is metabolized in the liver by CYP2E to a trichloromethyl free radical, which reacts with oxygen to produces a highly reactive peroxytrichloromethyl radical that initiates a damaging cycle of lipid membrane peroxidation and cell death (Leclercq et al., 2001. J. Gastroenterology and Hepatol., 24:51-59). With iterative injury (3 months in mice), extensive scarring develops as indicated by transdifferentiation of HSCs into myofibroblasts, intense myofibroblast proliferation and progressive laying down of ECM components. Following cessation of CCl4 injections, the scarring resolves completely (Kanzler et al., 1999. Am J Physiol., 276(4 Pt 1):G1059-68). These distinct phases of injury, repair, and resolution make this an ideal model for studying both injury and repair mechanisms.
Eight week-old C57BL6 mice were injected with 2 ml/kg body weight of CCl4 i.p. (1:1 v/v in corn oil) or vehicle alone twice weekly for 4 to 12 weeks. Specifically, groups of mice (n=8 per group per time point) are sacrificed at 48 hours (acute injury), 4, 8 and 12 weeks. The animals were terminated after a period of 72 hours after the final CCl4 injection and whole liver, intestine and serum were collected for histological, cytological, biochemical and molecular analyses. […]. Control mice received vehicle alone.
Twice weekly administration of CCl4 for […] caused sustained hepatocyte damage as evidenced by significant increases in serum ALT levels and marked histological changes in liver sections stained with hematoxylin and eosin. Serum ALT, AST and triglyceride (TG) and hepatic lipid peroxides (by TBARs) and TG were measured biochemically. Liver histology was scored blindly by a histopathologist using the Brunt system to determine levels of steatosis and inflammation. Expression levels of key genes involved in BA (Sult2a1) and cholesterol metabolism, transport (Bsep, Ntcp, Mdr1&2, Mrp2&3, Oatp1, 2&4), and synthesis (Srebp2, Cyp7a1) and the NXRs (Lxr, Car, Pxr & Fxr) regulating these genes were determined by real-time quantitative PCR (QPCR) with results normalized to […] (B2M). Protein expression was examined in a select number of genes by Western blotting. Statistical analysis was completed on SPSS v14 using Kruschal Wallis H and Mann-Whitney U tests with p<0.05 considered significant

Series [4] deals with T1, VDR (Rattus norvegicus, UniProt P13053).
T1 sequence (P13053 1-423): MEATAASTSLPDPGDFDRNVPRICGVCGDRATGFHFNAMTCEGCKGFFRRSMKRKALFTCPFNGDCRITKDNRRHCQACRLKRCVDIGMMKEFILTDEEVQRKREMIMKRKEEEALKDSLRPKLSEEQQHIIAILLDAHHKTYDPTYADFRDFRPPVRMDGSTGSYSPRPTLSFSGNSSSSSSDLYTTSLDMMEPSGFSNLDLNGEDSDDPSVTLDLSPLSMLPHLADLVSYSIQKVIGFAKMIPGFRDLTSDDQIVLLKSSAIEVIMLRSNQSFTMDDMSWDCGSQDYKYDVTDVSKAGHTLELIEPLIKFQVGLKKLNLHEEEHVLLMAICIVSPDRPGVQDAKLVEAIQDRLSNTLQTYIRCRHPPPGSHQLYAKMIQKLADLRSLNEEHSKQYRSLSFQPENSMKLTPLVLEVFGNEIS
The settings on record: rat SECs, FIG. 11A.

For series [5], the target named is T2, VDR (Homo sapiens, UniProt P11473).
T2 construct: endogenous in cells; host or cells: human LX-2 hepatic stellate cell line
T2 sequence (P11473 1-427): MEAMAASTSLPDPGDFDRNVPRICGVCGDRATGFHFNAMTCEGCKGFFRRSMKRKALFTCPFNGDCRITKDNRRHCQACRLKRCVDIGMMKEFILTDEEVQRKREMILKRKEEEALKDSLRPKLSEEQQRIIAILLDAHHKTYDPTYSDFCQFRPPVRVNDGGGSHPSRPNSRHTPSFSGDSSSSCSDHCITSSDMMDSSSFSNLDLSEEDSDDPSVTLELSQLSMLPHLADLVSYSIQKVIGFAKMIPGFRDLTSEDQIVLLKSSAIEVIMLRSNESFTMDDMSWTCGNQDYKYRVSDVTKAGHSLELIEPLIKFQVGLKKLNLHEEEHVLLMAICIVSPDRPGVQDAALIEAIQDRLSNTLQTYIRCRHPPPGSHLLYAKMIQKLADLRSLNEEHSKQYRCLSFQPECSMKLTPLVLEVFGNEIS
Kind of series: Real-time qPCR of CYP24A1 in human LX-2 cell line. Type of series: cell-based. Here is the method: Human LX-2 cells were grown to 50% confluence in DMEM with 10% FBS in 6-Well plates.
(§1) For qRT-PCR, 500 ng of deoxyribonuclease-treated total RNA was reverse transcribed into cDNA using SuperScript™ III reverse transcriptase essentially as described by the manufacturer (Invitrogen). Quantification of gene of interest mRNA was performed using a Rotor-Gene, RG 6000 (Corbett Research). […] Human B2M primers were from Applied Biosystems.
TGFβ signaling is the key mediator in hepatic fibrogenesis, triggering the transition of HSCs into myofibroblast-like cells and thereby stimulating synthesis of ECM proteins. Thus, TGFβ1 is produced locally in the organ as part of the fibrotic process It has been previously reported that TGFB signaling can influence the activity of VDR-dependent genes, as depicted in (FIG. 8A). In this model, TGFβ activation results in SMAD3 phosphorylation, inducing its translocation into the nucleus where it associates with the ligand bound VDR complex. Phosphorylated SMAD3 acts as a co-activator in the VDR/vitaminD3 complex enhancing the transcriptional potential of VDR on target genes. To understand the interplay between TGFB and VDR signaling pathways, the effects of TGFβ on the well characterized VDR gene target Cyp24α1 were examined.
Background: In qPCR the cycle at which signal appears reflects the starting amount.

A further series has as its system MCD diet model of NASH. Put plainly: Methionine and choline deficient (MCD) diet model of NASH. Type of series: in vivo, mouse. The settings on record: mice on MCD diet, 1 IU (25 ng) per gram body weight twice weekly. From the text: The methionine and choline deficient (MCD) diet model of nonalcoholic steatohepatitis (NASH) was originally developed in the mid 1990's to provide a suitable animal model to study the pathogenesis of this common human disease (Weltman et al., 1996. Gastroenterology., 111(6):1645-53). It faithfully reproduces the hepatic steatosis, lobular inflammation and fibrosis progressing over time to more severe fibrosis as observed in the human condition. The mouse version of this model has previously been well characterized and reproducibly mice develop hepatic steatosis, inflammation and extensive perivenular and pericellular fibrosis by 10 weeks.
Male C57black wild-type and the VDR floxed knockout mice are fed ad libitum a high fat, MCD diet (ICN cat no: 960439) for up to 10 weeks. Controls are pair-fed the same diet supplemented with choline chloride (2 g/kg) and DL-methionine (3 g/kg). […]. […] Fibrosis is determined by Sirius Red staining of liver samples. Serum transaminases, lipids and bile acids and liver bile acids are quantified as previously published (Stedman et al., 2006. Proc Natl Acad Sci USA., 103(30):11323-8) and hepatic lipids, glutathione and lipid peroxidation also are analyzed using standard published protocols. Additional tissue portions are snap frozen in liquid nitrogen for later preparation of total RNA for gene expression studies by quantitative PCR and gene arrays.

Series [6] has as its target T1, VDR. The settings on record: rat Kupffer cells, FIG. 11B.
Series [7] has as its target T1, VDR. Kind of series: Real-time qPCR of VDR target and vitamin D metabolising genes in primary rat HSCs. Type of series: cell-based. On the set-up: endogenous in cells; host or cells: primary rat hepatic stellate cells (Sprague-Dawley rats). Here is the method: Activated HSCs were cultured on plastic rather than Matrigel in the same media described above. Kupffer cells (KCs) were cultured in Williams' medium E containing 10% FBS, 2 mM glutamine on plastic plates.
as §1

For series [8] the following is noted: cited from earlier work.

Structures are written as SMILES. “Also recorded” adds a separate entry of the source. Read-outs that look alike come from different tables or passages of the source.

Take `O=S(=O)(c1ccccc1)N(CC(F)(F)F)c1ccc(C(O)(C(F)(F)F)C(F)(F)F)cc1` [T1317]: in the series with primary HSCs [1], the “Expression of neutrophil and monocyte attractants” value is given as “relatively few changes”; the “Gene induction of the interleukins IL-10 and 6” value is listed as “markedly decreased”.
For the compound `C=C1CC[C@H](O)C/C1=C/C=C1\CCC[C@]2(C)[C@@H]([C@H](C)CCCC(C)C)CC[C@@H]12` [vitamin D3, reference compound], in the series on primary HSCs [2], the “Induction of all collagen genes by TGFβ” value is “markedly decreased” and the “Repression of MMP10 by TGFβ” value is reported as “inhibited”. In the series on primary HSCs [1], the “Expression of neutrophil and monocyte attractants” value was “preferentially repressed”; the “Gene induction of the interleukins IL-10 and 6” value is “did not alter”.
As to `C=C1CC[C@H](O)C/C1=C/C=C1\CCC[C@]2(C)[C@@H]([C@H](C)CCCC(C)(C)O)CC[C@@H]12` [calcidiol, (5Z,7E)-9,10-Secocholesta-5,7,10(19)-triene-3β,25-diol monohydrate], in [3] (liver, CCl4 mice), the “Decrease of IL-α expression” value is given as “about 50%”, the “Decrease of MCP-1 expression” value is “about 50%”, the “Decrease of TGFβ1 expression” value is on record as “about 50%” and the TNF-α induction result is “no induction”. In addition, the “Production of inflammatory and fibrogenic markers” value in series [3] (mice, CCl4, 1 IU (25 ng) per gram body weight twice weekly, FIG. 9) is “significantly reduced”. In addition, the “VDR activation (Cyp24a1 mRNA expression)” value on VDR [4] is on record as “also activated”. For the same compound, the “Concentration giving maximal enhancement of CYP24A1” value at VDR [5] (LX-2 cells, day 2) worked out at 100 nM. In addition, the CYP24A1 expression result on VDR [5] (culture activated (day 7) LX-2 cells) is “barely induced”. Further, the “Production of inflammatory and fibrogenic markers” value in the series with MCD diet model of NASH was “reduced”. Further, the “VDR activation (Cyp24a1 mRNA expression)” value at VDR [6] is “also activated”. Besides, the CYP24A1 expression entry at VDR [7] (100 nM (10-fold higher dose), culture activated HSCs, listed as 25(OH) vitamin D3, monohydrate) is “moderately increasing; also recorded: barely induced”. Moreover, on VDR [7] (day 2 HSCs), the “Concentration giving maximal induction of CYP24A1” value is recorded as 10 nM. In [8] (isolated reports), the “Levels associated with changes in calcium homeostasis” value is listed as “exceeding 500 nmol/l”. The “Serum calcidiol with no evidence of adverse effects” value in series [8] (requiring a supply of 250 μg (10,000 IU)) is recorded as less than 140 nmol/L.
